Assay [1] has as its system MDA-MB-453. Briefly: drug sensitivity score (DSS), single agent (DSS (weighted AUC score)); higher = more sensitive (stronger viability decrease); extreme values may be limits of the assay. The settings on record: BLU9931 0 nM; 72 h. In a few lines: (§1)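 Each 384-well plate held compounds from the FIMM Oncology set, predispensed in singlicate at five 10-fold dilutions spanning a 10,000-fold range, and each well then received 2000 MDA-MB-453 cells in medium with or without an FGFR4 inhibitor at 100 nM final. Plates stayed at 37 °C, 5% CO2 for 72 h, after which cellular ATP was measured with CellTiterGlo 2.0. Readings were converted per plate into percent viability against control wells, and the drug sensitivity score was taken as a weighted area under a four-parameter logistic fit.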

The subject of assay [2] is MDA-MB-453. The assay is described as follows: drug sensitivity score (DSS), in combination with BLU9931 (DSS (weighted AUC score)); higher = more sensitive (stronger viability decrease); extreme values may be limits of the assay. To be noted: BLU9931 100 nM; 72 h. Summed up: as §1

With `C[C@]1(c2nc3c(C(N)=O)cccc3[nH]2)CCCN1` [Veliparib], the drug sensitivity score with MDA-MB-453 [1] amounted to 1.6; in the assay with MDA-MB-453 [2] it was 2.9.

`CCCS(=O)(=O)Nc1ccc(F)c(C(=O)c2c[nH]c3ncc(-c4ccc(Cl)cc4)cc23)c1F` [Vemurafenib]: the drug sensitivity score in the assay on MDA-MB-453 [1] and in the assay on MDA-MB-453 [2] was 0 in each case.

Take `CC1(C)CCC(CN2CCN(c3ccc(C(=O)NS(=O)(=O)c4ccc(NCC5CCOCC5)c([N+](=O)[O-])c4)c(Oc4cnc5[nH]ccc5c4)c3)CC2)=C(c2ccc(Cl)cc2)C1` [Venetoclax]: the drug sensitivity score with MDA-MB-453 [1] and in the assay with MDA-MB-453 [2] was 0 in each case.

Take `O=C(/C=C\n1cnc(-c2cc(C(F)(F)F)cc(C(F)(F)F)c2)n1)NNc1ccccn1` [Verdinexor]: the drug sensitivity score with MDA-MB-453 [1] came out at 4.7; in the assay on MDA-MB-453 [2], 4.9.

As for `CCCCOc1nc(N)c2c(n1)N(Cc1cccc(CN3CCCC3)c1)CC(=O)N2` [Vesatolimod], the drug sensitivity score in the assay with MDA-MB-453 [1] stood at 3; in the assay with MDA-MB-453 [2] it was 0.

As to `COc1cccc(-c2ccc(NC(=O)C3=C(C(=O)O)CCC3)c(F)c2)c1` [Vidofludimus], the results for the drug sensitivity score with MDA-MB-453 [1] and with MDA-MB-453 [2] were 0.4 and 0, respectively.

As for `CC[C@]1(O)C[C@@H]2CN(CCc3c([nH]c4ccccc34)[C@@](C(=O)OC)(c3cc4c(cc3OC)N(C)[C@H]3[C@@](O)(C(=O)OC)[C@H](OC(C)=O)[C@]5(CC)C=CCN6CC[C@]43[C@@H]65)C2)C1` [Vinblastine], the drug sensitivity score with MDA-MB-453 [1] came to 10; with MDA-MB-453 [2] it was 8.4.

Consider `CC[C@]1(O)C[C@H]2CN(CCc3c([nH]c4ccccc34)[C@@](C(=O)OC)(c3cc4c(cc3OC)N(C=O)[C@H]3[C@@](O)(C(=O)OC)[C@H](OC(C)=O)[C@]5(CC)C=CCN6CC[C@]43[C@@H]65)C2)C1` [Vincristine], for which the drug sensitivity score in the assay on MDA-MB-453 [1] came to 14.1; with MDA-MB-453 [2], 8.1.

As for `CC[C@]12C=CCN3CC[C@@]4(c5cc([C@@]6(C(=O)OC)C[C@@H]7C[C@@H](C(C)(F)F)CN(Cc8c6[nH]c6ccccc86)C7)c(OC)cc5N(C)[C@H]4[C@@](O)(C(=O)OC)[C@@H]1OC(C)=O)[C@@H]32` [Vinflunine], the drug sensitivity score was 2.6 in the assay with MDA-MB-453 [1] and 1.3 in the assay with MDA-MB-453 [2].

For `CCC1=C[C@@H]2CN(C1)Cc1c([nH]c3ccccc13)[C@@](C(=O)OC)(c1cc3c(cc1OC)N(C)[C@H]1[C@@](O)(C(=O)OC)[C@H](OC(C)=O)[C@]4(CC)C=CCN5CC[C@]31[C@@H]54)C2` [Vinorelbine], the drug sensitivity score with MDA-MB-453 [1] came to 23.2; with MDA-MB-453 [2], 19.

As to `CS(=O)(=O)c1ccc(C(=O)Nc2ccc(Cl)c(-c3ccccn3)c2)c(Cl)c1` [Vismodegib], the drug sensitivity score in the assay on MDA-MB-453 [1] and with MDA-MB-453 [2] was 0 throughout.

With `CNC(=O)c1cccc(-c2ccc3c(N4CCOC[C@@H]4C)nc(N4CCOC[C@@H]4C)nc3n2)c1` [Vistusertib], the results for the drug sensitivity score in the assay on MDA-MB-453 [1] and in the assay on MDA-MB-453 [2] were 16.3 and 16.9, respectively.

On to `CC[C@@H]1C(=O)N(C)c2cnc(Nc3ccc(C(=O)N[C@H]4CC[C@H](N5CCN(CC6CC6)CC5)CC4)cc3OC)nc2N1C(C)C` [Volasertib], for which the drug sensitivity score turned out to be 10.5 in the assay on MDA-MB-453 [1] and 7.8 with MDA-MB-453 [2].

`O=C(CCCCCCC(=O)Nc1ccccc1)NO` [Vorinostat]: the values for the drug sensitivity score in the assay with MDA-MB-453 [1] and in the assay on MDA-MB-453 [2] were 16.4 and 15.6, respectively.

For the molecule `Oc1nc(-c2ccc(C(F)(F)F)cc2)nc2c1CSCC2` [XAV-939], the drug sensitivity score came out at 0.2 in the assay on MDA-MB-453 [1] and 0.1 in the assay on MDA-MB-453 [2].

`FC(F)c1nc2ccccc2n1-c1nc(N2CCOCC2)nc(N2CCOCC2)n1` [ZSTK474]: the results for the drug sensitivity score in the assay with MDA-MB-453 [1] and with MDA-MB-453 [2] were 14.9 and 15.6, respectively.

With `Cc1sc2c(c1C)C(c1ccc(Cl)cc1)=N[C@@H](CC(=O)NCCCCNC(=O)COc1cccc3c1C(=O)N(C1CCC(=O)NC1=O)C3=O)c1nnc(C)n1-2` (some centres undefined) [dBET1], the drug sensitivity score in the assay on MDA-MB-453 [1] came to 12.2; with MDA-MB-453 [2] it was 13.2.

Values taken from the supplement of paper PMC7224384.
